Measured values reported in patent US20020045242A1, “Culture medium for culturing Lactobacillus clearans, and method for preserving said strain” (priority 1999, published 2002).
Like-named read-outs stand apart in the source and are kept apart here.

B1: Ovalbumin: protein-based preservative (protein, UniProt P01012 2-386, looked up)
Ovalbumin: GSIGAASMEFCFDVFKELKVHHANENIFYCPIAIMSALAMVYLGAKDSTRTQINKVVRFDKLPGFGDSIEAQCGTSVNVHSSLRDILNQITKPNDVYSFSLASRLYAEERYPILPEYLQCVKELYRGGLEPINFQTAADQARELINSWVESQTNGIIRNVLQPSSVDSQTAMVLVNAIVFKGLWEKAFKDEDTQAMPFRVTEQESKPVQMMYQIGLFRVASMASEKMKILELPFASGTMSMLVLLPDEVSGLEQLESIINFEKLTEWTSSNVMEERKIKVYLPRMKMEEKYNLTSVLMAMGITDVFSSSANLSGISSAESLKISQAVHAAHAEINEAGREVVGSAEAGVDAASVSEEFRADHPFLFCIKHIATNAVLFFGRCVSP

Experiments:
[1] = tested on: Lactobacillus clearans; test: Viability of Lactobacillus clearans during storage with preservatives
Procedure: (§1) Here, alfalfa juice and clover juice refer to liquids which are made by adding 10-fold water to alfalfa grass or clover grass to make a juice, these being used as alfalfa juice or clover juice, respectively. The amounts in which the preservatives are added are expressed in terms of the weight ratio of the preservative relative to the weight of the viable cells. […] The viability of Lactobacillus clearans is expressed as a percentage, where 100% is the viable cell count immediately after lyophilization. The viability during lyophilization is indicated as concentric circles when the viability is more than 90%, as two concentric circles to one circle when the rate is 80 to 90%, as one circle when the rate is 60 to 80%, as a square when the rate is 40 to 60%, as a triangle when the rate is 20 to 40%, and as an “x” when the rate is less than 20%.
(§2) Here, the amounts in which the preservatives were added are expressed as the weight ratio of the preservative relative to the viable cell weight. […] The viability of Lactobacillus clearans during lyophilization is indicated as two concentric circles when the viability is more than 90%, as two concentric circles to one circle when the rate is 80 to 90%, as one circle when the rate is 60 to 80%, as a square when the rate is 40 to 60%, as a triangle when the rate is 20 to 40%, and as an “x” when the rate is less than 20%.

[2] = tested on: Lactobacillus clearans; test: Changes in titer of Lactobacillus clearans during storage with preservatives; format: cell-based
Procedure: as §1, §2

[3] = tested on: Lactobacillus clearans; test: Viability of Lactobacillus clearans during lyophilization with preservatives; format: cell-based; settings: viability class
Procedure: as §1, §2

[4] = tested on: Lactobacillus clearans; test: Effect of substances added during subculture on titer of Lactobacillus clearans; format: cell-based; settings: added to medium during subculture
Description: The most important amino acids constituting the bacterial cells or enzymes were studied by type for their effects on Lactobacillus clearans.
We looked for substances capable of such enhancement or potentiation and conducted extensive- study.

[5] = Lactobacillus clearans, 3 months
[6] = Lactobacillus clearans, 6 months
[7] = Lactobacillus clearans, 12 months
[8] = protein-amino acid-based preservative
[9] = protein-amino acid-based preservative used alone
[10] = saccharides and animal-based complex preservative
[11] = saccharides and animal-based protein·vitamin·mineral complex preservative used alone
[12] = protein-amino acid-based preservative, 100% = viable cell count immediately after lyophilization, 3 months
[13] = protein-amino acid-based preservative, 100% = viable cell count immediately after lyophilization, 6 months
[14] = protein-amino acid-based preservative, 100% = viable cell count immediately after lyophilization, 12 months

Molecule	Changes over time during storage, Viability (%) 3 months [1, 5] [%]	Changes over time during storage, Viability (%) 6 months [1, 6] [%]	Changes over time during storage, Viability (%) 12 months [1, 7] [%]	Changes over time during storage, Changes in titer [2, 8]	Results during lyophilization [3, 9]	effect on titer of Lactobacillus clearans [4]	other results
NCCCC(=O)O	65	45	25	±	□ (a square when the rate is 40 to 60%)		
C[C@H](N)C(=O)O [Alanine]	30	15	5	−	Δ (a triangle when the rate is 20 to 40%)		
N=C(N)NCCC[C@H](N)C(=O)O [Arginine]	20	5	2		Δ (a triangle when the rate is 20 to 40%)		Changes over time during storage, Changes in titer [2]: −
NC(=O)C[C@H](N)C(=O)O [Asparagine]	55	30	15	±	□ (a square when the rate is 40 to 60%)		
N[C@@H](CS)C(=O)O [Cysteine]	65	45	30	+	◯ (one circle when the rate is 60 to 80%)	extremely effective	
N[C@@H](CSSC[C@H](N)C(=O)O)C(=O)O [Cystine]	70	50	35	+	◯ (one circle when the rate is 60 to 80%)	extremely effective	
NCC(=O)O [Glycine]	25	10	2	−	Δ (a triangle when the rate is 20 to 40%)		
OC[C@H]1O[C@@H](O[C@H]2[C@H](O)[C@@H](O)C(O)O[C@@H]2CO)[C@H](O)[C@@H](O)[C@H]1O (some centres unmarked) [Lactose]	70	50	20				Changes over time during storage, Changes in titer [2, 10]: ±; Results during lyophilization [3, 11]: □ (a square when the rate is 40 to 60%)
CC(C)C[C@H](N)C(=O)O [Leucine]	25	10	3	−	Δ (a triangle when the rate is 20 to 40%)		
NCCCC[C@H](N)C(=O)O [Lysine]				±	Δ (a triangle when the rate is 20 to 40%)	extremely effective	Changes over time during storage, Viability (%) 3 months [1, 12]: 30%; Changes over time during storage, Viability (%) 6 months [1, 13]: 15%; Changes over time during storage, Viability (%) 12 months [1, 14]: 5%
CSCC[C@H](N)C(=O)O [Methionine]	65	45	30	+	◯ (one circle when the rate is 60 to 80%)	extremely effective	
N[C@@H](CCC(=O)[O-])C(=O)[O-].[Na+].[Na+] [Sodium glutamate]				±	□ (a square when the rate is 40 to 60%)		Changes over time during storage, Viability (%) 3 months [1, 12]: 60%; Changes over time during storage, Viability (%) 6 months [1, 13]: 40%; Changes over time during storage, Viability (%) 12 months [1, 14]: 20%
OC[C@H]1O[C@@](CO)(O[C@H]2O[C@H](CO)[C@@H](O)[C@H](O)[C@H]2O)[C@@H](O)[C@@H]1O [Sucrose]	30	15	5				Changes over time during storage, Changes in titer [2, 10]: −; Results during lyophilization [3, 11]: Δ (a triangle when the rate is 20 to 40%)
NCCS(=O)(=O)O [Taurine]	70	50	35	+	◯ (one circle when the rate is 60 to 80%)	extremely effective	
OC[C@H]1O[C@H](O[C@H]2O[C@H](CO)[C@@H](O)[C@H](O)[C@H]2O)[C@H](O)[C@@H](O)[C@@H]1O [Trehalose]							Changes over time during storage, Viability (%) 3 months ([1]; saccharides and animal-based complex preservative, 100% = viable cell count immediately after lyophilization, 3 months): 75%; Changes over time during storage, Viability (%) 6 months ([1]; saccharides and animal-based complex preservative, 100% = viable cell count immediately after lyophilization, 6 months): 50%; Changes over time during storage, Viability (%) 12 months ([1]; saccharides and animal-based complex preservative, 100% = viable cell count immediately after lyophilization, 12 months): 30%; Changes over time during storage, Changes in titer [2, 10]: +; Results during lyophilization [3, 11]: ◯ (one circle when the rate is 60 to 80%)
N[C@@H](Cc1c[nH]c2ccccc12)C(=O)O [Tryptophan]	25	10	4	−	Δ (a triangle when the rate is 20 to 40%)		
O=C1O[C@H]([C@@H](O)CO)C(O)=C1O [Vitamin C]						effective	

Molecule	Changes over time during storage, Viability (%) 3 months [1, 5] [%]	Changes over time during storage, Viability (%) 6 months [1, 6] [%]	Changes over time during storage, Viability (%) 12 months [1, 7] [%]	Changes over time during storage, Changes in titer [2, 8]	Results during lyophilization [3, 9]	effect on titer of Lactobacillus clearans [4]	other results
N[C@@H](CC(=O)O)C(=O)O [aspartic acid]						extremely effective	
Nc1nc2ncc(CNc3ccc(C(=O)N[C@@H](CCC(=O)O)C(=O)O)cc3)nc2c(=O)[nH]1 [folic acid]						effective	
N[C@@H](CCC(=O)O)C(=O)O [glutamic acid]						extremely effective	
[Mg+2] [magnesium]						effective	
[Mn+2] [manganese]						effective	
[Mo] [molybdenum]						effective	
NC(=O)c1cccnc1 [nicotinamide]						effective	
O=C(O)[C@@H]1CCCN1 [proline]						a rapid decrease in titer	
[Zn] [zinc]						effective	
Gelatin					X (an “x” when the rate is less than 20%)		Changes over time during storage, Viability (%) 3 months [1]: 10%; Changes over time during storage, Viability (%) 6 months [1]: 3%; Changes over time during storage, Viability (%) 12 months [1]: 0%
Potato starch							Changes over time during storage, Viability (%) 3 months [1]: 30%; Changes over time during storage, Viability (%) 6 months [1]: 20%; Changes over time during storage, Viability (%) 12 months [1]: 10%
Soluble starch							Changes over time during storage, Viability (%) 3 months [1]: 60%; Changes over time during storage, Viability (%) 6 months [1]: 40%; Changes over time during storage, Viability (%) 12 months [1]: 15%
Vitamin B12						effective	
Vitamin E						effective	
Yeast extract							Changes over time during storage, Viability (%) 3 months [1]: 50%; Changes over time during storage, Viability (%) 6 months [1]: 30%; Changes over time during storage, Viability (%) 12 months [1]: 20%
calcium pantothenate						effective	
B1				+	◯ (one circle when the rate is 60 to 80%)		Changes over time during storage, Viability (%) 3 months [1]: 70%; Changes over time during storage, Viability (%) 6 months [1]: 50%; Changes over time during storage, Viability (%) 12 months [1]: 30%
